Reference: publication PMC10974284, “Discovery of Novel 4-Hydroxyquinazoline Derivatives: In Silico, In Vivo and In Vitro Studies Using Primary PARPi-Resistant Cell Lines” (Molecules, 2024)
Where two headings read alike, the source gives them in different places.

Columns and labels:
HCT-15 cell lines = experiment: MTT cytotoxicity assay, HCT-15; format: cell-based, human; conditions: Homo sapiens; for IC50: read-out: IC50 HCT-15
Experimental: (§1) After treatment with target compounds at the different concentrations, MTT was added and the cells were incubated for another 4 h. The IC50 values of the selected compounds were evaluated by the same method. The cells were treated with compounds at different concentrations. The OD values were detected using a microplate reader at 570 nm.

HCC1937 cell lines = experiment: MTT cytotoxicity assay, HCC1937; format: cell-based, human; conditions: Homo sapiens; for IC50: read-out: IC50 HCC1937
Experimental: as §1

PARP1 = target: T1, PARP1 (Homo sapiens, UniProt P09874); experiment: PARP1 enzyme inhibition assay (commercial kit); format: biochemical
T1 construct: purchased Sigma-Aldrich 17-10149

[1] = HCT-15, 72 h (3-Days) drug exposure, MTT
[2] = HCC1937, 72 h (3-Days) drug exposure, MTT

T1 sequence (P09874 whole entry): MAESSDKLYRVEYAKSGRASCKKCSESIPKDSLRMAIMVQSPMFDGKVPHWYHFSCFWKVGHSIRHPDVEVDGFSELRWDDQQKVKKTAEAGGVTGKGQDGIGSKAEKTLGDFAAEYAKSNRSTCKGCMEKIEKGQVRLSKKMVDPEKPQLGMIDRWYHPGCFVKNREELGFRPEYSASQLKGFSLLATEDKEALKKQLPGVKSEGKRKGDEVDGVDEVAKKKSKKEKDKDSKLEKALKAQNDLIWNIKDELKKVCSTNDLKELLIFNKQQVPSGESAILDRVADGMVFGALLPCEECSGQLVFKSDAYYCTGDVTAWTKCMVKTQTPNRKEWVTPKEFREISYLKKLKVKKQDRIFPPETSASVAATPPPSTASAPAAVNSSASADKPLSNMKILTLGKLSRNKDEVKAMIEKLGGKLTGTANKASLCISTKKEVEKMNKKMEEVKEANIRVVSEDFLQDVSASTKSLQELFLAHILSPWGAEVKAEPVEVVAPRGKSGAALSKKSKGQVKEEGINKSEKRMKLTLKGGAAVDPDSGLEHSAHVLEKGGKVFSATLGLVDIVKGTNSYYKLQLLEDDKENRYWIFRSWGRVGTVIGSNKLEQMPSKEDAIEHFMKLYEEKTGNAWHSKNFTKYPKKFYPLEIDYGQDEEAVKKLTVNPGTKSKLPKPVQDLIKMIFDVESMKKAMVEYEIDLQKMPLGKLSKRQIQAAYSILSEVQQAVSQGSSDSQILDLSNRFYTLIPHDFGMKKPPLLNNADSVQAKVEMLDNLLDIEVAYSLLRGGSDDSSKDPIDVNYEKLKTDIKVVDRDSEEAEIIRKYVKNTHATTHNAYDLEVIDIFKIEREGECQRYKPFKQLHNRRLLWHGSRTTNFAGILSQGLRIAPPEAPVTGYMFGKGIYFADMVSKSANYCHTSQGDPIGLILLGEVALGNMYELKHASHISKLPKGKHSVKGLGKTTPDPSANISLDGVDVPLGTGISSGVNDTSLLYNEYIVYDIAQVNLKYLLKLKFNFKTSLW

SMILES | melting point [°C] | IC50 (HCT-15 cell lines; [1]) [µM] | IC50 (HCC1937 cell lines; [2]) [µM] | also measured
Cc1ccc(Cl)c(NC(=O)N2CCN(Cc3nc4ccccc4c(=O)[nH]3)CC2)c1 [A27, N-(2-chloro-5-methylphenyl)-4-((4-oxo-3,4-dihydroquinazolin-2-yl)methyl)piperazine-1-carboxamide] | 196.7 to 198.7 | 25.4 ± 1.48 | 17.5 ± 0.66 | –
Cc1c(F)cccc1NC(=O)N1CCN(Cc2nc3ccccc3c(=O)[nH]2)CC1 [A28, N-(3-fluoro-2-methylphenyl)-4-((4-oxo-3,4-dihydroquinazolin-2-yl)methyl)piperazine-1-carboxamide] | 198.9 to 200.6 | 30.3 ± 3.3 | > 50 | –
Cc1cc(F)ccc1NC(=O)N1CCN(Cc2nc3ccccc3c(=O)[nH]2)CC1 [A29, N-(4-fluoro-2-methylphenyl)-4-((4-oxo-3,4-dihydroquinazolin-2-yl)methyl)piperazine-1-carboxamide] | 197.6 to 200.1 | 29.8 ± 1.57 | > 50 | –
Cc1ccc(F)cc1NC(=O)N1CCN(Cc2nc3ccccc3c(=O)[nH]2)CC1 [A30, N-(5-fluoro-2-methylphenyl)-4-((4-oxo-3,4-dihydroquinazolin-2-yl)methyl)piperazine-1-carboxamide] | 201.1 to 202.8 | 18.3 ± 0.44 | 39.5 ± 1.84 | –
Cc1c(Br)cccc1NC(=O)N1CCN(Cc2nc3ccccc3c(=O)[nH]2)CC1 [A31, N-(3-bromo-2-methylphenyl)-4-((4-oxo-3,4-dihydroquinazolin-2-yl)methyl)piperazine-1-carboxamide] | 200.6 to 202.2 | > 50 | > 50 | –
Cc1ccc(Cl)cc1NC(=O)N1CCN(Cc2nc3ccccc3c(=O)[nH]2)CC1 [A32, N-(5-chloro-2-methylphenyl)-4-((4-oxo-3,4-dihydroquinazolin-2-yl)methyl)piperazine-1-carboxamide] | 203.1 to 204.7 | 10.9 ± 0.71 | 11.3 ± 0.73 | –
Cc1cccc(C)c1NC(=O)N1CCN(Cc2nc3ccccc3c(=O)[nH]2)CC1 [A33, N-(2,6-dimethylphenyl)-4-((4-oxo-3,4-dihydroquinazolin-2-yl)methyl)piperazine-1-carboxamide] | 200.3 to 201.9 | 35 ± 2.28 | 39.6 ± 1.35 | –
O=C(Nc1cc(F)cc(F)c1)N1CCN(Cc2nc3ccccc3c(=O)[nH]2)CC1 [A34, N-(3,5-difluorophenyl)-4-((4-oxo-3,4-dihydroquinazolin-2-yl)methyl)piperazine-1-carboxamide] | 199.8 to 200.2 | 47.2 ± 3.35 | > 50 | –
O=C(Nc1cc(Cl)cc(Cl)c1)N1CCN(Cc2nc3ccccc3c(=O)[nH]2)CC1 [A35, N-(3,5-dichlorophenyl)-4-((4-oxo-3,4-dihydroquinazolin-2-yl)methyl)piperazine-1-carboxamide] | 207.5 to 209.5 | 21.2 ± 0.89 | > 50 | –
O=C(Nc1ccc(F)c(Cl)c1)N1CCN(Cc2nc3ccccc3c(=O)[nH]2)CC1 [A36, N-(3-chloro-4-fluorophenyl)-4-((4-oxo-3,4-dihydroquinazolin-2-yl)methyl)piperazine-1-carboxamide] | 200.1 to 202.7 | 25.2 ± 1.66 | > 50 | –
Cc1ccc(NC(=O)N2CCN(Cc3nc4ccccc4c(=O)[nH]3)CC2)cc1C [A37, N-(3,4-dimethylphenyl)-4-((4-oxo-3,4-dihydroquinazolin-2-yl)methyl)piperazine-1-carboxamide] | 194.4 to 196.1 | 22.5 ± 1.49 | 46.4 ± 2.96 | –
Cc1cc(C)cc(NC(=O)N2CCN(Cc3nc4ccccc4c(=O)[nH]3)CC2)c1 [A38, N-(3,5-dimethylphenyl)-4-((4-oxo-3,4-dihydroquinazolin-2-yl)methyl)piperazine-1-carboxamide] | 201.5 to 203.3 | 18 ± 0.88 | 17.9 ± 1.32 | –
O=C(Nc1cc(C(F)(F)F)cc(C(F)(F)F)c1)N1CCN(Cc2nc3ccccc3c(=O)[nH]2)CC1 [A39, N-(3,5-bis(trifluoromethyl)phenyl)-4-((4-oxo-3,4-dihydroquinazolin-2-yl)methyl)piperazine-1-carboxamide] | 204.2 to 206.1 | 21 ± 2.33 | 42.2 ± 2.77 | –
Cc1ccc(Cl)cc1NC(=O)N1C[C@H]2CC[C@@H](C1)N2Cc1nc2ccccc2c(=O)[nH]1 [B5, (1R,5S)-N-(5-chloro-2-methylphenyl)-8-((4-oxo-3,4-dihydroquinazolin-2-yl)methyl)-3,8-diazabicyclo[3.2.1]octane-3-carboxamide] | 189.5 to 191.7 | – | – | IC50 (HCT-15 cell lines; HCT-15, 72 h): 11 ± 2.4 µM; IC50 (HCC1937 cell lines; HCC1937, 72 h): 9.61 ± 1.35 µM
Cc1ccc(Cl)cc1NC(=O)N1C2CCC1CN(Cc1nc3ccccc3c(=O)[nH]1)C2 [B6, N-(5-chloro-2-methylphenyl)-3-((4-oxo-3,4-dihydroquinazolin-2-yl)methyl)-3,8-diazabicyclo[3.2.1]octane-8-carboxamide] | 192.3 to 193.6 | – | – | IC50 (HCT-15 cell lines; HCT-15, 72 h): 7.27 ± 1.28 µM; IC50 (HCC1937 cell lines; HCC1937, 72 h): 7.52 ± 1.37 µM
Cc1ccc(Cl)cc1NC(=O)N1C2CC1CN(Cc1nc3cc(F)ccc3c(=O)[nH]1)C2 [C1, N-(5-chloro-2-methylphenyl)-3-((7-fluoro-4-oxo-3,4-dihydroquinazolin-2-yl)methyl)-3,6-diazabicyclo[3.1.1]heptane-6-carboxamide] | 193.2 to 195.1 | – | – | IC50 (HCT-15 cell lines; HCT-15, 72 h): 24.1 ± 2.25 µM; IC50 (HCC1937 cell lines; HCC1937, 72 h): 9.22 ± 1.19 µM
Cc1ccc(Cl)cc1NC(=O)N1C2CC1CN(Cc1nc3cc(Cl)ccc3c(=O)[nH]1)C2 [C2, N-(5-chloro-2-methylphenyl)-3-((7-chloro-4-oxo-3,4-dihydroquinazolin-2-yl)methyl)-3,6-diazabicyclo[3.1.1]heptane-6-carboxamide] | 192.3 to 194.1 | – | – | IC50 (HCT-15 cell lines; HCT-15, 72 h): 23 ± 1.93 µM; IC50 (HCC1937 cell lines; HCC1937, 72 h): 32.4 ± 2.66 µM
Cc1ccc2c(=O)[nH]c(CN3CC4CC(C3)N4C(=O)Nc3cc(Cl)ccc3C)nc2c1 [C3, N-(5-chloro-2-methylphenyl)-3-((7-methyl-4-oxo-3,4-dihydroquinazolin-2-yl)methyl)-3,6-diazabicyclo[3.1.1]heptane-6-carboxamide] | 197.7 to 199.3 | – | – | IC50 (HCT-15 cell lines; HCT-15, 72 h): 28.4 ± 2.87 µM; IC50 (HCC1937 cell lines; HCC1937, 72 h): 30.1 ± 3.12 µM
Cc1ccc(Cl)cc1NC(=O)N1C2CC1CN(Cc1nc3ccc(F)cc3c(=O)[nH]1)C2 [C4, N-(5-chloro-2-methylphenyl)-3-((6-fluoro-4-oxo-3,4-dihydroquinazolin-2-yl)methyl)-3,6-diazabicyclo[3.1.1]heptane-6-carboxamide] | 192.1 to 193.5 | – | – | IC50 (HCT-15 cell lines; HCT-15, 72 h): 9.84 ± 0.63 µM; IC50 (HCC1937 cell lines; HCC1937, 72 h): 8.49 ± 0.71 µM
Cc1ccc(Cl)cc1NC(=O)N1C2CC1CN(Cc1nc3cc(F)c(F)cc3c(=O)[nH]1)C2 [C5, N-(5-chloro-2-methylphenyl)-3-((6,7-difluoro-4-oxo-3,4-dihydroquinazolin-2-yl)methyl)-3,6-diazabicyclo[3.1.1]heptane-6-carboxamide] | 194.4 to 195.8 | – | – | IC50 (HCT-15 cell lines; HCT-15, 72 h): 29.6 ± 2.16 µM; IC50 (HCC1937 cell lines; HCC1937, 72 h): 55 ± 4.28 µM
O=C(Nc1ccc(F)cc1F)N1CCN(Cc2nc3ccccc3c(=O)[nH]2)CC1 [IN17] | – | 33.5 ± 1.79 | 34.3 ± 2.68 | inhibition at 50 µM (HCT-15 cell lines; HCT-15, 50 μM, 72 h, MTT, read-out: Inhibition rate (%) HCT-15): 63.3%; inhibition at 50 µM (HCC1937 cell lines; HCC1937, 50 μM, 72 h, MTT, read-out: Inhibition rate (%) HCC1937): 60.6%; IC50 (PARP1): 0.4713 ± 0.00318 µM; inhibition at 0.5 µM (PARP1; 0.5 μM, read-out: Inhibition rate (%) PARP1): 53.1%; IC50 (PARP1; as printed in the text): 0.47 ± 0.0032 µM

Continued, in another order:

melting point [°C] | SMILES | IC50 (HCT-15 cell lines; [1]) [µM] | IC50 (HCC1937 cell lines; [2]) [µM] | also measured
189.5 to 190.8 | Cc1ccc(Cl)cc1NC(=O)N1CCN(Cc2nc3ccccc3c(=O)[nH]2)CC1C (stereo not shown) [B2, N-(5-chloro-2-methylphenyl)-2-methyl-4-((4-oxo-3,4-dihydroquinazolin-2-yl)methyl)piperazine-1-carboxamide] | 6.37 ± 2.83 | 5.89 ± 0.5 | –
191.1 to 192.4 | Cc1ccc(Cl)cc1NC(=O)N1C[C@@H]2C[C@H]1CN2Cc1nc2ccccc2c(=O)[nH]1 [B3, (1S,4S)-N-(5-chloro-2-methylphenyl)-5-((4-oxo-3,4-dihydroquinazolin-2-yl)methyl)-2,5-diazabicyclo[2.2.1]heptane-2-carboxamide] | 12.5 ± 1.49 | 16.5 ± 0.94 | –
186.6 to 187.9 | Cc1ccc(Cl)cc1NC(=O)N1CCCN(Cc2nc3ccccc3c(=O)[nH]2)CC1 [B4, N-(5-chloro-2-methylphenyl)-4-((4-oxo-3,4-dihydroquinazolin-2-yl)methyl)-1,4-diazepane-1-carboxamide] | 5.65 ± 1.29 | 5.77 ± 0.99 | –
197.3 to 198.7 | Cc1ccc(Cl)cc1NC(=O)N1CCCN(Cc2nc3ccccc3c(=O)[nH]2)C1 [B7, N-(5-chloro-2-methylphenyl)-3-((4-oxo-3,4-dihydroquinazolin-2-yl)methyl)tetrahydropyrimidine-1(2H)-carboxamide] | 13.7 ± 1.21 | 57.9 ± 3.33 | –
